Laboratory results reported in US11377441B2, “Covalent inhibitors of KRAS” (Araxes Pharma LLC, priority 2017, dated 2022).

Biological target: T1, KRAS G12C 1-169, his-tagged protein, GDP-loaded (Homo sapiens, UniProt P01116, G12C)
T1 construct: KRAS G12C 1-169, his-tagged protein, GDP-loaded
Test: Biochemical assay: covalent modification of KRAS G12C measured by mass spectrometry (RapidFire/TOF or Q-Exactive)
Assay type: binding
Conditions: covalent binding to (modification of) KRAS G12C after a ten minute incubation period
Method: Test compounds were prepared as 10 mM stock solutions in DMSO (Fisher cat #BP-231-100). KRAS G12C 1-169, his-tagged protein, GDP-loaded is diluted to 2 μM or 0.5 μM in buffer (20 mM Hepes, 150 mM NaCl, 1 mM MgCl2). Compounds were tested for activity as follows:
Compounds were diluted to 50× final test concentration in DMSO in 96-well storage plates. Compound stock solutions were vortexed before use and observed carefully for any sign of precipitation. Dilutions are as follow: • For 100 μM final compound concentration, compounds were diluted to 5000 μM (5 μL 10 mM compound stock+5 μL DMSO and mixed well by pipetting. • For 30 μM final compound concentration, compounds were diluted to 1500 μM (3 μL 10 mM compound stock+17 μL DMSO) and mixed well by pipetting. • For 10 μM final compound concentration, compounds were diluted to 500 μM (2 μL 10 mM compound stock+38 μL DMSO) and mixed well by pipetting. 49 μL of the stock protein solution was added to each well of a 96-well PCR plate (Fisher cat #1423027). 1 μL of the diluted 50× compounds were added to appropriate wells in the PCR plate using 12-channel pipettor. Reactions were mixed carefully and thoroughly by pipetting up/down with a 200 μL multi-channel pipettor. The plate was sealed well with aluminum plate seal, and stored in drawer at room temperature for 10 minutes, 30 minutes, 2 hours or 24 hours. 5 μL of 2% formic acid (Fisher cat #A117) in de-ionized H2O was then added to each well followed by mixing with a pipette. The plate was then resealed with aluminum seal and stored on dry ice until analyzed as described below.
The above described assays were analyzed by mass spectrometry according to one of the following two procedures:
The MS instrument was set to positive polarity, 2 GHz resolution, and low mass (1700) mode and allowed to equilibrate for 30 minutes. The instrument was then calibrated, switched to acquisition mode and the appropriate method loaded.
After another 30 minute equilibration time, a blank batch (i.e., buffer) was run to ensure equipment is operating properly. The samples were thawed at 37° C. for 10 minutes, briefly centrifuged, and transfer to the bench top. Wells A1 and H12 were spiked with 1 μL 500 μM internal standard peptide, and the plates centrifuged at 2000×g for 5 minutes. The method was then run and masses of each individual well recorded.
The masses (for which integration data is desired) for each well were pasted into the platemap and exported from the analysis. Masses for the internal standards were exported as well. The data at 50 ppm was extracted for the +19 charge state, and identity of well A1 was assigned using the internal standard spike and integrated. Peak data was exported as a TOF list and the above steps were repeated individually, for the +20, 21, 22, 23, 24, and 25 charge states.
The masses and peak intensities of KRAS G12C protein species were measured using a Dionex RSLCnano system (Thermo Scientific) connected to a Q Exactive Plus mass spectrometer (Thermo Scientific).
[…] of sample was each loaded onto a Aeris™ 3.6 μm WIDEPORE C4 200 Å, LC Column 50×2.1 mm column maintained at 40° C. at a flow rate of 600 μL/min with 20% Solvent A (0.1% formic acid in H2O) and […] (0.1% formic acid in acetonitrile). The liquid chromatography conditions were 20% solvent B for 1 minute, 20% to 60% solvent B for 1.5 minutes, 60% to 90% solvent for 0.5 minute, 90% solvent B for 0.2 minute, 90% to 20% solvent B for 0.2 minute, and then equilibrated for 1.6 minutes before the following sample injection. The flow rate was maintained at 600 μL/min throughout the sample analysis.
The mass spectrometer was operated in profile mode at a resolution of 17500, 5 microscans, using 50 msec max injection time and an AGC target of 1×10^6, and a full mass range from 800-1850 m/z was recorded. The HCD trapping gas was optimized for maximum sensitivity for intact proteins. […]

C=CC(=O)N1C[C@H](C)N(c2nc(OC[C@H]3CN(C)CCO3)nc3c(F)c(-c4c(C)ccc5[nH]nc(C)c45)c(Cl)cc23)C[C@H]1C [Compound 190, 1-((2R,5S)-4-(6-chloro-7-(3,5-dimethyl-1H-indazol-4-yl)-8-fluoro-2-(((R)-4-methylmorpholin-2-yl)methoxy)quinazolin-4-yl)-2,5-dimethylpiperazin-1-yl)prop-2-en-1-one]
Binding %: +++ (+++ indicates binding activity greater than 80%)

C=CC(=O)N1C[C@H](C)N(c2nc(N3CC(N(C)C)C3)nc3c(F)c(-c4c(F)ccc5ccn(C)c45)c(Cl)cc23)C[C@H]1C [Compound 229, 1-((2R,5S)-4-(6-chloro-2-(3-(dimethylamino)azetidin-1-yl)-8-fluoro-7-(6-fluoro-1-methyl-1H-indol-7-yl)quinazolin-4-yl)-2,5-dimethylpiperazin-1-yl)prop-2-en-1-one]
Binding %: +++ (+++ indicates binding activity greater than 80%)

C=CC(=O)N1C[C@H](C)N(c2nc(N3CC(N(C)C)C3)nc3c(F)c(-c4c(C)ccc5ccn(C)c45)c(Cl)cc23)C[C@H]1C [Compound 203, 1-((2R,5S)-4-((R)-6 chloro-7-(1,6-dimethyl-1H-indol-7-yl)-2-(3-(dimethylamino)azetidin-1-yl)-8-fluoroquinazolin-4-yl)-2,5-dimethylpiperazin-1-yl)prop-2-en-1-one]
Binding %: +++ (+++ indicates binding activity greater than 80%)

C=CC(=O)N1C[C@H](C)N(c2nc(N3CC(N(C)C)C3)nc3c(F)c(-c4c(C)ccc5cnn(C6CC6)c45)c(Cl)cc23)C[C@H]1C (atropisomer, axis not shown) [Compound 150, 1-((2R,5S)-4-((R)-6-chloro-7-(1-cyclopropyl-6-methyl-1H-indazol-7-yl)-2-(3-(dimethylamino)azetidin-1-yl)-8-fluoroquinazolin-4-yl)-2,5-dimethylpiperazin-1-yl)prop-2-en-1-one]
Binding %: +++ (+++ indicates binding activity greater than 80%)

C=CC(=O)N1C[C@H](C)N(c2nc(OC[C@@H]3COCCN3C)nc3c(F)c(-c4c(C)ccc5cnn(C)c45)c(Cl)cc23)C[C@H]1C [Compound 182, 1-((2R,5S)-4-(6-chloro-7-(1,6-dimethyl-1H-indazol-7-yl)-8-fluoro-2-(((S)-4-methylmorpholin-3-yl)methoxy)quinazolin-4-yl)-2,5-dimethylpiperazin-1-yl)prop-2-en-1-one]
Binding %: ++ (++ indicates binding activity from 50 to 80%)

C=CC(=O)N1C[C@H](C)N(c2nc(OCCN3CC(F)(F)C3)nc3c(F)c(-c4c(C)ccc5[nH]nc(N)c45)c(Cl)cc23)C[C@H]1C (atropisomer, axis not shown) [Compound 83, 1-((2R,5S)-4-((S)-7-(3-amino-5-methyl-1H-indazol-4-yl)-6-chloro-2-(2-(3,3-difluoroazetidin-1-yl)ethoxy)-8-fluoroquinazolin-4-yl)-2,5-dimethylpiperazin-1-yl)prop-2-en-1-one]
Binding %: + (+ indicates binding activity greater than 0% and up to 50%)

C=CC(=O)N1C[C@H](C)N(c2nc(N3CC(NC)C3)nc3c(F)c(-c4c(C)ccc5[nH]nc(C6CC6)c45)c(Cl)cc23)C[C@H]1C (atropisomer, axis not shown) [Compound 210, 1-((2R,5S)-4-((S)-6-chloro-7-(3-cyclopropyl-5-methyl-1H-indazol-4-yl)-8-fluoro-2-(3-(methylamino)azetidin-1-yl)quinazolin-4-yl)-2,5-dimethylpiperazin-1-yl)prop-2-en-1-one]
Binding %: + (+ indicates binding activity greater than 0% and up to 50%)

C=CC(=O)N1C[C@H](C)N(c2nc(N3CC(N(C)C)C3)nc3c(F)c(-c4c(F)ccc5cnn(C6CC6)c45)c(Cl)cc23)C[C@H]1C (atropisomer, axis not shown) [Compound 201, 1-((2R,5S)-4-((S)-6-chloro-7-(1-cyclopropyl-6-fluoro-1H-indazol-7-yl)-2-(3-(dimethylamino)azetidin-1-yl)-8-fluoroquinazolin-4-yl)-2,5-dimethylpiperazin-1-yl)prop-2-en-1-one]
Binding %: +++ (+++ indicates binding activity greater than 80%)

C=CC(=O)N1C[C@H](C)N(c2nc(N3CC(N(C)C)C3)nc3c(F)c(-c4c(C)ccc5cnn(C)c45)c(Cl)cc23)C[C@H]1C (atropisomer, axis not shown) [Compound 87, 1-((2R,5S)-4-((R)-6-chloro-7-(1,6-dimethyl-1H-indazol-7-yl)-2-(3-(dimethylamino)azetidin-1-yl)-8-fluoroquinazolin-4-yl)-2,5-dimethylpiperazin-1-yl)prop-2-en-1-one]
Binding %: +++ (+++ indicates binding activity greater than 80%)

C=CC(=O)N1C[C@H](C)N(c2nc(OC[C@@H]3CCCN3C)nc3c(F)c(-c4c(C)ccc5[nH]nc(C)c45)c(Cl)cc23)C[C@H]1C [Compound 162, 1-((2R,5S)-4-(6-chloro-7-(3,5-dimethyl-1H-indazol-4-yl)-8-fluoro-2-(((S)-1-methylpyrrolidin-2-yl)methoxy)quinazolin-4-yl)-2,5-dimethylpiperazin-1-yl)prop-2-en-1-one]
Binding %: +++ (+++ indicates binding activity greater than 80%)

C=CC(=O)N1C[C@@H](C)N(c2nc(N3CC(N(C)C)C3)nc3c(F)c(-c4c(C)ccc5cnn(C)c45)c(Cl)cc23)C[C@H]1C (atropisomer, axis not shown) [Compound 242, 1-((2R,5R)-4-((S)-6-chloro-7-(1,6-dimethyl-1H-indazol-7-yl)-2-(3-(dimethylamino)azetidin-1-yl)-8-fluoroquinazolin-4-yl)-2,5-dimethylpiperazin-1-yl)prop-2-en-1-one]
Binding %: + (+ indicates binding activity greater than 0% and up to 50%)

[2H]C([2H])([2H])N(C1CN(c2nc(N3C[C@@H](C)N(C(=O)C=C)C[C@@H]3C)c3cc(Cl)c(-c4c(C)ccc5cnn(C6CC6)c45)c(F)c3n2)C1)C([2H])([2H])[2H] [Compound 214, 1-((2R,5S)-4-((R)-6-chloro-7-(1-cyclopropyl-6-methyl-1H-indazol-7-yl)-2-(3-(di-perdeuteromethylamino)azetidin-1-yl)-8-fluoroquinazolin-4-yl)-2,5-dimethylpiperazin-1-yl)prop-2-en-1-one]
Binding %: +++ (+++ indicates binding activity greater than 80%)

[2H]C([2H])([2H])N(C1CN(c2nc(N3C[C@@H](C)N(C(=O)C=C)C[C@@H]3C)c3cc(Cl)c(-c4c(C)ccc5[nH]nc(C6CC6)c45)c(F)c3n2)C1)C([2H])([2H])[2H] (atropisomer, axis not shown) [Compound 223, 1-((2R,5S)-4-((S)-6-chloro-7-(3-cyclopropyl-5-methyl-1H-indazol-4-yl)-2-(3-(di-perdeuteromethylamino)azetidin-1-yl)-8-fluoroquinazolin-4-yl)-2,5-dimethylpiperazin-1-yl)prop-2-en-1-one]
Binding %: + (+ indicates binding activity greater than 0% and up to 50%)

C=CC(=O)N1C[C@H](C)N(c2nc(OC[C@H]3CCCN3C)nc3c(F)c(-c4c(C)ccc5cnn(C)c45)c(Cl)cc23)C[C@H]1C (atropisomer, axis not shown) [Compound 261, 1-((2R,5S)-4-((S)-6-chloro-7-(1,6-dimethyl-1H-indazol-7-yl)-8-fluoro-2-(((R)-1-methylpyrrolidin-2-yl)methoxy)quinazolin-4-yl)-2,5-dimethylpiperazin-1-yl)prop-2-en-1-one]
Binding %: +++ (+++ indicates binding activity greater than 80%)
